The numbers were not newly measured in patent publication US20250319118A1, “Prophylaxis and Treatment of Degraded Cartilage” (PhrixionLS, LLC, priority 2022, published 2025), which cites them from elsewhere.

For data set [1], the system named is osteoarthritis. The note with it: for Limitations: clinical outcomes / OA symptoms: clinical trials, osteoarthritis.
Data set [2] deals with osteoarthritis. As to conditions: viscosupplementation.

As to `C[S+](CC[C@H](N)C(=O)[O-])C[C@H]1O[C@@H](n2cnc3c(N)ncnc32)[C@H](O)[C@@H]1O` (some centres unmarked) [S-adenosyl-methionine (SAMe), S-adenosyl-methionine], in the data set on osteoarthritis [1] (literature summary), the “Limitations: clinical outcomes / OA symptoms” value is on record as “Shown to improve OA symptoms,”.

For the molecule hyaluronic acid [HA], the “Benefit compared to placebo” value with osteoarthritis [2] is given as “no significant benefit compared to placebo”.

`C[C@H]1CN(C(=O)CC[C@@]2(C3CC3)NC(=O)NC2=O)CCN1c1cc(F)cc(F)c1` [GLPG1972, reference compound]: in the data set with osteoarthritis [1] (Phase-2 study), the Efficacy versus placebo entry is reported as “No significant difference versus”.

For the molecule Bromelain, the “Limitations: clinical outcomes / OA symptoms” value with osteoarthritis [1] (literature summary) is reported as “Mixed results in clinical trials,”.

B1: Sprifermin: Drug (Trial), investigated as disease-modifier for cartilage damage (protein, UniProt O76093 28-207, looked up)
Fibroblast growth factor 18: EENVDFRIHVENQTRARDDVSRKQLRLYQLYSRTSGKHIQVLGRRISARGEDGDKYAQLLVETDTFGSQVRIKGKETEFYLCMNRKGKLVGKPDGTSKECVFIEKVLENNYTALMSAKYSGWYVGFTKKGRPRKGPKTRENQQDVHFMKRYPKGQPELQKPFKYTTVTKRSRRIRPTHPA
Consider B1, for which the “Limitations: effect on cartilage (regeneration / protection)” value with osteoarthritis [1] (clinical and preclinical data, literature summary) was “Demonstrated positive effects”.
